The text below walks through data of patent US4415565A, “Silver metachloridine in treatment of infections” (The United States of America as represented by the …, priority 1981, dated 1983).

The test system of test [1] is RVFV. Nature of the test: microbe, parasite or virus in culture. It counts as cell-based. The note with it: Rift Valley fever virus, SW13, read-out: Concentration required to give 80% plaque reduction.
Test [2] has as its system YF. Put plainly: microbe, parasite or virus in culture. It counts as cell-based. The conditions noted are these: MK2, read-out: Concentration required to give 80% plaque reduction.
Test [3] relates to VEE. Nature of the test: microbe, parasite or virus in culture. It counts as cell-based. The conditions noted are these: Vero; read-out: Concentration required to give 80% plaque reduction.
For test [4], the system named is DEN-2. Put plainly: microbe, parasite or virus in culture. The note with it: SW13, read-out: Concentration required to give 80% plaque reduction.
The test system of test [5] is PICH. Put plainly: microbe, parasite or virus in culture. The conditions noted are these: Vero, read-out: Concentration required to give 80% plaque reduction.
Test [6] deals with Trypanosoma rhodesiense. Nature of the test: In vitro antitrypanosomal screening, semi-automated microtest system. It counts as cell-based.
Test [7] relates to Plasmodium falciparum. Nature of the test: In vitro antimalarial screening, semi-automated microdilution technique. It counts as cell-based. The conditions noted are these: column head in nanograms/ml, footnote in μg/ml, read-out: ED50 (out-of-range entries). The text has this:
Desjardins, R. E.; Canfield, C. J.; Haynes, J. D.; and Chulay, J. D.: Quantitative Assessment of Antimalarial Activity In Vitro by A Semi-automated Microdilution Technique. Antimicrob. Ag. & Chemother., 16:710-718, 1979.

The subject of test [8] is malaria. The note with it: A Survey of Antimalarial Drugs, 1941-1945; cited from earlier work.
Setting [9] is: 3H-Thymidine, read-out: ED50, 3H-Thymidine (out-of-range entries).

Molecules are shown by their SMILES. ≈ marks a conversion by molar mass, not a printed value. Read-outs that look alike come from different tables or passages of the source.

As to `NC(=O)c1ncn([C@@H]2O[C@H](CO)[C@@H](O)[C@H]2O)n1` [Ribavirin], the EC80 in test [1] turned out to be 25 µg/mL (≈ 102 µM); in test [2], 50 µg/mL (≈ 205 µM); in test [3] it was 100 µg/mL (≈ 409 µM); in test [4], 100 µg/mL (≈ 409 µM); in test [5] it was 100 µg/mL (≈ 409 µM).

Regarding `Nc1ccc(S(=O)(=O)Nc2ncccn2)cc1` [aluminum sulfadiazine], in test [6] (setting [9]), the IC50 is above 12.5 µg/mL.

Regarding `Nc1cccc(S(=O)(=O)Nc2ncc(Cl)cn2)c1` [metachloridine, 5-chloro-2-metanilamidopyrimidine], the IC50 in test [7] was above 12.5 µg/mL; in test [6] (setting [9]) it was above 12.5 µg/mL; in test [6] (14C-Leucine, read-out: ED50, 14C-Leucine (out-of-range entries)) it was above 12.5 µg/mL. Also, the “antimalarial activity in screening tests” value in test [8] is listed as “sufficiently active in screening tests for antimalarial effects”.

With `Nc1ccc(S(=O)(=O)Nc2ncccn2)cc1` [sulfadiazine, 2-sulfanilaminidopyrimidine], the IC50 in test [7] was above 12.5 µg/mL.

Turning to `COc1cnc(NS(=O)(=O)c2ccc(N)cc2)nc1` [sulfameter], in test [6] (setting [9]), the IC50 is above 12.5 µg/mL.
